According to publication doi:10.1101/2022.07.12.499690v1 (biorxiv, 2022):

Target: PD-L1 (Homo sapiens, UniProt Q9NZQ7)
Assay: bio-affinity ultrafiltration, UPLC-HRMS
Format: binding
Conditions: […] h incubation with compound; denatured PD-L1 as control

Sequence of PD-L1 (Q9NZQ7 19-290): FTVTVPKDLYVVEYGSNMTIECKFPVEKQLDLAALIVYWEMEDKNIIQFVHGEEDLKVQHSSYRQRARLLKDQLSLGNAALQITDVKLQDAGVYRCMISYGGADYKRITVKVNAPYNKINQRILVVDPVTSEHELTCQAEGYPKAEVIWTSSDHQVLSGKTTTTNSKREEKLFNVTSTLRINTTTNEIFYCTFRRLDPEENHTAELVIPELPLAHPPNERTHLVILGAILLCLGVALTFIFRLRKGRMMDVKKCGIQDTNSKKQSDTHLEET

NCCc1c[nH]c2ccccc12 [tryptamine]
relative peak area enhancement: 40.98%
